According to patent US9499504B2, “Crystalline form of vortioxetine hydrobromide” (Sandoz AG, priority 2012, dated 2016):
One block for each compound: values may come before it.

Columns and labels:
[1] = Solubility as a function of time in hexanol/n-heptane (1:39 v:v), UV-spectrophotometry; assay type: physicochemical; settings: 25±1° C., UV at 227 nm, hydrobromide
From the text: It is known to a person skilled in the art that the difference in the relative solubility of two polymorphs is independent from the solvent system, if an “ideal solution”, meaning a solution which is not too concentrated, is present. (see e.g. Kuhnert-Brandstätter M., Burger A., Pharmazeutische Industrie, 1972, 34, Nr. 3, 187-190; Samuel H. Yalowsky, Solubility and Solubilization in Aqueous Media, ACS, Oxford University Press 1999, ISBN: 0-8412-3576-7, p. 98). Therefore the solubilities of vortioxetine hydrobromide forms alpha and beta of WO 2007/144005 A1 and the compound of the present invention were determined in a mixture of hexanol and n-heptane. […] (see example 4 of the present invention).
The solubilities as a function of time were determined for vortioxetine hydrobromide polymorphs alpha, beta and the crystalline compound of the present invention, respectively. Therefore approximately 100 mg of each polymorph (polymorph alpha and beta were obtained according to the procedures disclosed in WO 2007/144005 A1, the crystalline compound of the present invention was obtained according to the procedure disclosed in example 1 herein) were stirred in 50 mL of a mixture of hexanol/n-heptane (1:39=v:v) at 25±1° C. Subsequently 5 mL were taken from each suspension after 1, 5, 10, 15, 30 and 60 minutes with the aid of a volumetric pipette and filtered. The concentrations of the obtained solutions were determined directly by UV-spectrophotometry (apparatus: Shimadzu UV1800) at 227 nm.
The determination of the extinction coefficient was performed with polymorph delta as a calibration substance.

physchem = settings: water
From the text: (§1) Using the water solubility values of polymorphs alpha and beta provided in WO 2007/144005 A1 and the herein determined relative solubilities of polymorphs alpha, beta and delta the water solubility of the crystalline compound of the present invention can be calculated.

[2] = Water solubility calculated from relative solubilities and WO 2007/144005 A1 water solubility data; settings: calculation with water solubility value of polymorph alpha (2.0 mg/mL) from WO 2007/144005 A1, hydrobromide
From the text: as §1

[3] = Gravimetric moisture sorption/desorption cycle; assay type: physicochemical
From the text: In addition, an active pharmaceutical ingredient is preferably non-hygroscopic in order to ensure the chemical and physical quality during the storage of the active substance itself. Furthermore, an active pharmaceutical ingredient is preferably non-hygroscopic in order to ensure the chemical and physical quality also during the shelf-life of a solid finished dosage form containing the active substance. Special and expensive packaging can then be avoided. […] For instance, in example 4f of WO 2007/144005 A1, it is mentioned that form gamma absorbs about 4.5% water when exposed to high relative humidity and in example 4h of the same application it is stated that the water content of the hemihydrate strongly depends on the relative humidity. For instance, the water content of the hemihydrate at 95% relative humidity is about 3.7% according to example 4h of WO 2007/144005.
Gravimetric moisture sorption/desorption curves were acquired using a SPS-11 moisture sorption analyzer (MD Messtechnik, Ulm, D). The measurement cycle was started at 43% relative humidity (RH) and decreased in 10% steps down to 0% RH; up to 95% RH, down to 0% RH and up to 43% RH. The equilibrium condition for each step was set to a mass constancy of ±0.01% over 30 min. The temperature was 25±0.1° C.

[4] = exposed to high relative humidity; example 4f of WO 2007/144005 A1; cited from earlier work
[5] = Solid-state stability of the hydrate at room temperature; assay type: physicochemical; settings: not stable
From the text: The novel hydrate of vortioxetine hydrobromide is not stable at room temperature and converts to form alpha of WO 2007/144005 A1 within about 4 weeks.

- absolute solubility in hexanol/n-heptan (1:39 = v:v) ([1]; listed as alpha): 31 µg/mL
SMILES: Br.Cc1ccc(Sc2ccccc2N2CCNCC2)c(C)c1 [polymorph alpha, 1-{2-[(2,4-dimethylphenyl)sulfanyl]phenyl}piperazine hydrobromide]

- solubility (physchem): 3800 µg/mL
- absolute solubility in hexanol/n-heptan (1:39 = v:v) ([1]; listed as present invention): 48 µg/mL
- calculated water solubility 1) ([2]; listed as compound of the present invention): 3000 µg/mL
- hygroscopicity ([3]; according to the specifications of the European Pharmacopoeia): non-hygroscopic
- water content ([3]; relative humidity of about 0%, 25° C.): about 0.3%
- water content ([3]; relative humidity of about 80%, 25° C.): about 0.5%
- water content ([3]; up to a relative humidity of about 95%): less than 0.7%
SMILES: Br.Cc1ccc(Sc2ccccc2N2CCNCC2)c(C)c1 [polymorph delta, 1-{2-[(2,4-dimethylphenyl)sulfanyl]phenyl}piperazine hydrobromide]

SMILES: Br.Cc1ccc(Sc2ccccc2N2CCNCC2)c(C)c1 [form gamma, 1-{2-[(2,4-dimethylphenyl)sulfanyl]phenyl}piperazine hydrobromide]
- water absorbed [4]: about 4.5%

- time to conversion to form alpha [5]: ≤ 4 weeks
SMILES: Cc1ccc(Sc2ccccc2N2CCNCC2)c(C)c1

- absolute solubility in hexanol/n-heptan (1:39 = v:v) ([1]; listed as beta): 15 µg/mL
- calculated water solubility 1) [2]: 1000 µg/mL
SMILES: Br.Cc1ccc(Sc2ccccc2N2CCNCC2)c(C)c1 [polymorph beta, 1-{2-[(2,4-dimethylphenyl)sulfanyl]phenyl}piperazine hydrobromide, reference compound]
